We go through eight compounds from ChEMBL document CHEMBL1153169, “Structure-activity relationships of the ultrapotent vanilloid resiniferatoxin (RTX): The side chain benzylic methylene” (Bioorg Med Chem Lett, 2010).

The structures appear in SMILES notation.

The target of assay [1] is T1, Transient receptor potential cation channel subfamily V member 1 (Homo sapiens, UniProt Q8NER1). Nature of the assay: Agonist activity at human TRPV1 expressed in HEK293 cells assessed as increase in intracellular calcium level. In kind it is functional, cell-based.
T1 sequence (Q8NER1 whole entry): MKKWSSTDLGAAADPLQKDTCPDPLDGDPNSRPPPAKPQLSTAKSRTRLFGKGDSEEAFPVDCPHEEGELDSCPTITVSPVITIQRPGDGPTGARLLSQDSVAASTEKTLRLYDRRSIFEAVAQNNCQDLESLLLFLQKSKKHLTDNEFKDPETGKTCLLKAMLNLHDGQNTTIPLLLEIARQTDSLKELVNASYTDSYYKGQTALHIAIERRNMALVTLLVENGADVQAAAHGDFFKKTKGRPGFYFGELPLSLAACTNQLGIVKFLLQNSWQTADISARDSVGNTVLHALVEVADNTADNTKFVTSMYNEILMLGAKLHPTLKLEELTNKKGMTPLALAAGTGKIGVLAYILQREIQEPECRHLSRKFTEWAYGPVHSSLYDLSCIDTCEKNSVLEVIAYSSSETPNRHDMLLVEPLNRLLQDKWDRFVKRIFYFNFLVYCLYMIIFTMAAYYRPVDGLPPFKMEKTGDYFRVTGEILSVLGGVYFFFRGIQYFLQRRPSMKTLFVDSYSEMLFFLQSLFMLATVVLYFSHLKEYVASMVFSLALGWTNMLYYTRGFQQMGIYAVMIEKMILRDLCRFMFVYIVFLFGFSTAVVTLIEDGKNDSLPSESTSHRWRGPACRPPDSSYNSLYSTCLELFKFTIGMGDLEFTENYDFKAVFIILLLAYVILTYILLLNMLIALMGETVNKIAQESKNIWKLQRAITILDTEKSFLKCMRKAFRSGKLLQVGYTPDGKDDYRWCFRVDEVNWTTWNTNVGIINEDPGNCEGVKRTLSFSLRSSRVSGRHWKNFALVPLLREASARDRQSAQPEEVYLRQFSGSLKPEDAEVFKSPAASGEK
Assay [2] addresses T1, Transient receptor potential cation channel subfamily V member 1. Kind of assay: Antagonist activity at human TRPV1 expressed in HEK293 cells assessed as inhibition of intracellular calcium level. In kind it is functional, cell-based. (In general: A change in cytosolic calcium serves as a functional read-out for many receptors and channels.)
Assay [3] shares this target. Nature of the assay: Selectivity ratio of EC50 for drug to capsaicin for human TRPV1 expressed in HEK293 cells assessed as increase in intracellular calcium level. In kind it is cell-based.

For the compound `C=C(C)[C@]12C[C@@H](C)[C@@]34O[C@](Cc5ccccc5)(O[C@@H]1[C@@H]3C=C(COC(=O)C(OC(C)=O)c1ccc(O)c(OC)c1)C[C@]1(O)C(=O)C(C)=C[C@@H]41)O2` (some centres undefined), the EC50 (usually the concentration giving half of the maximal effect) in assay [1] amounted to 0.65 nM.
Still for that read-out and setting: next, `C=C(C)[C@]12C[C@@H](C)[C@@]34O[C@](Cc5ccccc5)(O[C@@H]1[C@@H]3C=C(COC(=O)C(OC)c1ccc(O)c(OC)c1)C[C@]1(O)C(=O)C(C)=C[C@@H]41)O2` (some centres undefined): 17.4 nM; `C=C(C)[C@]12C[C@@H](C)[C@@]34O[C@](Cc5ccccc5)(O[C@@H]1[C@@H]3C=C(COC(=O)Oc1cc(I)c(O)c(OC)c1)C[C@]1(O)C(=O)C(C)=C[C@@H]41)O2`: 0.0047 nM.
For the compound `C=C(C)[C@]12C[C@@H](C)[C@@]34O[C@](Cc5ccccc5)(O[C@@H]1[C@@H]3C=C(COC(=O)Cc1cc(I)c(O)c(OC)c1)C[C@]1(O)C(=O)C(C)=C[C@@H]41)O2` [IODORESINIFERATOXIN], the IC50 – broadly, the midpoint of a concentration-inhibition curve – in assay [2] is 4 µM.
For the compound `C=C(C(=O)OCC1=C[C@H]2[C@H]3O[C@@]4(Cc5ccccc5)O[C@@]2([C@H](C)C[C@]3(C(=C)C)O4)[C@@H]2C=C(C)C(=O)[C@@]2(O)C1)c1ccc(O)c(OC)c1`, in assay [1], the concentration giving a half-maximal response (EC50) worked out at 0.15 nM.
For `C=C(C)[C@]12C[C@@H](C)[C@@]34O[C@](Cc5ccccc5)(O[C@@H]1[C@@H]3C=C(COC(=O)Oc1ccc(O)c(OC)c1)C[C@]1(O)C(=O)C(C)=C[C@@H]41)O2`, the Ratio EC50 in assay [3] was found to be 3. The EC50 in assay [1] came to 13.7 nM.
In the case of `C=C(C)[C@]12C[C@@H](C)[C@@]34O[C@](Cc5ccccc5)(O[C@@H]1[C@@H]3C=C(COC(=O)C(O)c1ccc(O)c(OC)c1)C[C@]1(O)C(=O)C(C)=C[C@@H]41)O2` (some centres undefined), in assay [1], the EC50 worked out at 19 nM.
On the same count and under the same terms, next, `C=C(C)[C@]12C[C@@H](C)[C@@]34O[C@](Cc5ccccc5)(O[C@@H]1[C@@H]3C=C(COC(=O)C(C)c1ccc(O)c(OC)c1)C[C@]1(O)C(=O)C(C)=C[C@@H]41)O2` (some centres undefined): 0.98 nM.
